These results are taken from paper PMC6695191 (PLoS Neglected Tropical Diseases, 2019).

Like-named read-outs stand apart in the source and are kept apart here.

The subject of data set [1] is L. donovani intracellular amastigotes. Description: L. donovani intracellular amastigote assay in PMA-differentiated THP-1 macrophages (Giemsa counting). The format is cell-based, Leishmania donovani. The settings on record: for IC50: L. donovani in THP-1 macrophages, 120 h incubation, mean ± SD, n = 2 biological replicates; for Selectivity Index: CC50 THP-1/IC50 intracellular amastigotes. The method, then:
(§1) Leishmania donovani axenic cultures (strain MHOM/ET/67/HU3) were maintained in M199 medium (pH 7.4) supplemented with 10% heat-inactivated fetal calf serum (FCS) and grown at 28°C [22]. Human leukemia cells (THP-1 cell line) were maintained in RPMI-1640 (FCS 10%) and grown at 37°C and 5% CO2. Stock solutions of compounds 1–4 were prepared in 100% DMSO at 10 mM and tested in 2-fold serial dilutions (10 concentrations) in 96-well flat-bottom microtiter plates.
In the intracellular amastigote assay, THP-1 cells were seeded at 2 × 10^4/well (RPMI-1640, 100 μL) with phorbol 12-myristate 13-acetate (PMA) at 20 ng/mL for differentiation into macrophages. After incubation for 72 hours (5% CO2, 37°C), medium was aspirated and late-stage promastigotes were added (2 × 10^5/well, 100 μL). After 24 hours of incubation, medium was aspirated to clear extracellular parasites, compounds were added in serial dilutions (100 μL) and the plates were incubated for 120 hours. All plates included negative controls (100% parasite growth) and miltefosine as a positive control. Following incubation, medium was removed and the cells were fixed in methanol and stained with Giemsa. The average number of intracellular amastigotes per THP-1 cell was determined using an inverted microscope and a cell counter. Growth inhibition was expressed as a percentage of the average number of amastigotes per macrophage in the negative control wells. IC50 values were determined as described above for the promastigote assay.

For another data set, the system named is Escovopsis sp. The data set can be described thus: Antagonist bioassay of compounds and fractions against Escovopsis on ISP-2 agar. The format is cell-based. The settings on record: 100 μg compound, 21 days. How it is done: (§2) Each bacterium-fungus and compound-fungal challenge was replicated two times on ISP-2 agar. Bacteria strains were initially screened against Escovopsis sp. ICBG1251. Bacteria were placed in the center of ISP-2 agar Petri dishes and grown alone during 7 days; fungal strains were then point-inoculated near the edge of the culture (microbial strains distant from each other around 3 cm). Two microliters of compounds (100 μg) were placed in the center of Petri dishes and fungal strains were then point-inoculated near the edge of the plate. The positive control used was the miconazole. Challenges were monitored each 7 days and inhibition zone was measure after 21 days. Four different fungal strains were used for testing the pure compounds: Escovopsis sp. ICBG711 (from Trachymyrmex colony), Escovopsis sp. ICBG740 (from Acromyrmex colony), Escovopsis sp. ICBG1251 (from Atta colony) and Trichoderma sp. ICBG1100 (from attine colony).

The subject of data set [2] is L. donovani promastigotes. The data set can be described thus: L. donovani promastigote assay (Alamar Blue). Type of data set: cell-based, Leishmania donovani. Conditions: 72 h incubation at 28°C, mean ± SD, n = 2 biological replicates. How it is done: as §1
For the promastigote assay, L. donovani cells from axenic cultures in logarithmic growth were seeded at 1 x 10^5/well (M199, 80 μL) and compounds were added in serial dilutions (20 μL). All plates included negative controls (100% parasite growth) and miltefosine as a positive control. After 72 hours of incubation at 28°C, 10 μL of Alamar Blue (12.5 mg resazurin/100 mL distilled water) was added to each well and then the plates were incubated for 3 hours. This indicator of cell viability permeates into viable parasites, where it is reduced by NADPH and NADH enzymes to the highly fluorescent compound resorufin [24]. Following incubation, the plates were read with a microplate fluorometer under an excitation wave length of 536 nm and an emission wave length of 588 nm. […] If the test compound is active against L. donovani, the number of viable parasites is reduced, thus resulting a decrease in fluorescence. Growth inhibition was expressed as a percentage of the fluorescence of the negative control wells. IC50 values were determined using SigmaPlot. Dose-response curves were fitted using log (inhibitor concentration) vs. normalized response (between 0% and 100%) with variable slope, and IC50 values were automatically calculated.

The next data set relates to Trichoderma sp. ICBG1100. The data set can be described thus: Antagonist bioassay of compounds against Trichoderma on ISP-2 agar. The format is cell-based. The settings on record: 100 μg compound, 21 days of growth at 28°C. How it is done: as §2
A short description of data set [3]: Selectivity assay on THP-1 macrophages (Alamar Blue). The settings on record: human. The format is cell-based. How it is done:
Leishmania donovani axenic cultures (strain MHOM/ET/67/HU3) were maintained in M199 medium (pH 7.4) supplemented with 10% heat-inactivated fetal calf serum (FCS) and grown at 28°C [22].
After incubation for 72 hours (5% CO2, 37°C), medium was aspirated, compounds were added in serial dilutions (100 μL) and the plates were incubated for 120 h. All plates included negative controls and doxorubicin as a positive control. Following incubation, 10 μL of Alamar Blue was added to each well and then the plates were incubated for 3 hours. […] Growth inhibition was expressed as a percentage of the fluorescence of the negative control wells. IC50 values were determined as described above for the promastigote and amastigote assays.
A general note: Resazurin is reduced to fluorescent resorufin, in cell work by metabolically active cells.

Setting [4] is: THP-1 macrophages, 120 h incubation, mean ± SD, n = 2 biological replicates, read-out: CC50 THP-1.

What is called IC50 is the midpoint of a concentration-inhibition curve. Lower therefore signals inhibition by little substance. In the case of `C/C=C(\C)[C@H](O)[C@H](C)/C=C(C)/C=C/C/C(C)=C/Cc1nc(OC)cc(O)c1C` [Compound 1, Mer-A2026B], the IC50 in data set [1] amounted to 49.9 ± 7.01 µM; in data set [2], 35.9 ± 1.83 µM. Also, the “Antagonist activity against four different Escovopsis strains compared to compounds 2–4” value with Escovopsis sp. is reported as “higher antagonist activity”. For the same compound, the “Activity against Trichoderma sp.” value with Trichoderma sp. ICBG1100 is listed as “active”.

Broadly, the CC50 is the concentration giving 50% cytotoxicity. Turning to `C/C=C(\C)[C@H](O)[C@H](C)/C=C(C)/C=C/C/C(C)=C/Cc1nc(OC)c(OC)c(O)c1C` [Compound 2, piericidin-A1], the IC50 in data set [1] (Leishmania donovani) was more than 64 µM; in data set [2] (Leishmania donovani), 38.4 ± 4.63 µM. Moreover, the CC50 at 120 h in data set [3] (setting [4]) is more than 64 µM.

As for `CO[C@@H]1C[C@@H](C[C@H]2CC[C@H](C)[C@H]([C@@H](C)C(=O)O)O2)O[C@]2(O[C@](C)([C@H]3CC[C@@](C)([C@@H]4O[C@@H]([C@H]5O[C@@](O)(CO)[C@H](C)C[C@@H]5C)C[C@@H]4C)O3)C[C@H]2C)[C@@H]1C` [Compound 3, nigericin], the “Selectivity Index” value in data set [1] is reported as 88.91. The IC50 was 0.129 ± 0.008 µM in data set [1] (Leishmania donovani) and 0.284 ± 0.072 µM in data set [2] (Leishmania donovani). The compound further gave a CC50 at 120 h in data set [3] of 11.5 ± 0.68 µM.

As for `CC[C@@H]1C[C@H]2CC[C@H](O2)[C@H](C)C(=O)O[C@@H](C)C[C@@H]2CC[C@@H](O2)[C@@H](C)C(=O)O[C@H](CC)C[C@H]2CC[C@H](O2)[C@H](C)C(=O)O[C@@H](C)C[C@@H]2CC[C@@H](O2)[C@@H](C)C(=O)O1` [Compound 4, dinactin], the “Selectivity Index” value in data set [1] was 656.11. In addition, the IC50 was determined as 0.018 ± 0.003 µM in data set [1] (Leishmania donovani) and 0.032 ± 0.005 µM in data set [2] (Leishmania donovani). Besides, the CC50 at 120 h in data set [3] (setting [4]) came out at 11.8 ± 1.57 µM.

Consider `COc1cccc2c1C(=O)c1c(O)c3c(c(O)c1C2=O)C[C@@](O)(C(=O)CO)C[C@@H]3O[C@H]1C[C@H](N)[C@H](O)[C@H](C)O1` [Doxorubicin, reference compound], for which the CC50 at 120 h in data set [3] (THP-1 cells differentiated into macrophages with PMA, THP-1 macrophages, 120 h incubation, mean ± SD, n = 2 biological replicates, read-out: CC50 THP-1) worked out at 0.571 ± 0.068 µM.

With `CCCCCCCCCCCCCCCCOP(=O)([O-])OCC[N+](C)(C)C` [Miltefosine, reference compound], the IC50 amounted to 5.8 ± 0.59 µM in data set [1] (Leishmania donovani) and 4.74 ± 0.25 µM in data set [2] (Leishmania donovani).
